Test results: PubChem BioAssay (NCI)
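Values below derive from 48-hour exposures of cells grown in 96-well plates, with endpoints linearly interpolated between the two concentrations bracketing the appropriate inhibition level. The concentration for full growth arrest is given as TGI.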

Key:
Assay in all cases: NCI-60 cell line screen, 48 h
[1] = tested on: RXF 393 renal
[2] = tested on: M14 melanoma
[3] = tested on: SK-MEL-2 melanoma
[4] = tested on: M19-MEL melanoma
[5] = tested on: U251 CNS
[6] = tested on: SNB-75 CNS
[7] = tested on: NCI-H23 lung
[8] = tested on: HOP-92 NSCLC
[9] = tested on: LOX IMVI melanoma
[10] = tested on: XF 498 CNS
[11] = tested on: SF-295 CNS
[12] = tested on: MALME-3M melanoma
[13] = tested on: NCI-H226 lung
[14] = tested on: OVCAR-5 ovarian
[15] = tested on: SW-620 colon
[16] = tested on: IGROV1 ovarian
[17] = tested on: KM20L2 colon
[18] = tested on: ACHN renal
[19] = tested on: SN12C renal
[20] = tested on: SK-MEL-5 melanoma
[21] = tested on: UACC-257 melanoma
[22] = tested on: HOP-62 NSCLC
[23] = tested on: HL-60(TB) leukemia
[24] = tested on: HCT-116 colon
[25] = tested on: OVCAR-4 ovarian
[26] = tested on: DLD-1 colon
[27] = tested on: SK-MEL-28 melanoma
[28] = tested on: A549 NSCLC
[29] = tested on: 786-0 renal
[30] = tested on: LXFL 529 NSCLC
[31] = tested on: COLO 205 colon
[32] = tested on: TK-10 renal
[33] = tested on: DMS 273 small cell lung
[34] = tested on: RPMI-8226 leukemia
[35] = tested on: CCRF-CEM leukemia
[36] = tested on: K-562 leukemia
[37] = tested on: DMS 114 small cell lung
[38] = tested on: HCC-2998 colon
[39] = tested on: SNB-19 CNS
[40] = tested on: SK-OV-3 ovarian
[41] = tested on: MOLT-4 leukemia
[42] = tested on: UACC-62 melanoma
[43] = tested on: OVCAR-3 ovarian
[44] = tested on: KM12 colon
[45] = tested on: EKVX NSCLC
[46] = tested on: SF-268 CNS
[47] = tested on: HCT-15 colon
[48] = tested on: SF-539 CNS
[49] = tested on: UO-31 renal
[50] = tested on: NCI-H522 lung
[51] = tested on: OVCAR-8 ovarian
[52] = tested on: SR leukemia
[53] = tested on: HOP-18 NSCLC
[54] = tested on: HT29 colon
[55] = tested on: NCI-H460 lung

Measured: TGI

CC(C)(C1=NC(C(C)(C)C)CO1)C1=N[C@@H](C(C)(C)C)CO1 (some centres undefined)
> 100 µM: all assays above

C[C@@H]1CC2(C[C@@H](C)C3[C@@H](CC4(C)CCCC5C6=CC(O)(CC[C@]34C)OC6=CC(=O)OC5(C)C)O2)OC1=O (some centres undefined)
not listed: [4] | [11] | [17] | [21] | [22] | [35] | [45] | [46] | [51] | [54] | [55]
> 100 µM: all other assays above
